Results published in patent publication US11229628B2, “TRPA1 and TRPV4 inhibitors and methods of using the same for organ-specific inflammation and itch” (Duke University, priority 2015, dated 2022).
“Also recorded” adds a separate entry of the source. Where a SMILES comes first, the peptide text is derived from it. [ ]: non-standard residue; d: D form.

Key:
[1] = system: primary mouse epidermal keratinocytes (1° MK); assay: UVB-evoked Ca++ signaling in primary mouse keratinocytes (fluo-4 imaging); assay type: cell-based; details: for ET1-augmented UVB-evoked Ca++ signaling: UVB and ET1 co-exposure; for UVB-evoked Ca++ signaling: fluo-4 ΔF/F0, GSK205 20 μM
Procedure: Ca++ imaging of 1° MK was conducted following routine procedures. For UVB stimulation, a customized device was built. The system comprised a printed circuit board for electrical interconnects and mechanical support and an ultraviolet light-emitting diode (UV LED).
The operating wavelength was 295 nm (FIG. 2A), with a full-width half-max of 12 nm. The optical power was 500 mW. The focal point was aimed at the plane of the upper surface of the quartz coverslip, which was used to minimize UV absorption along the optical path towards the cells (FIG. 2A-C). The optical intensity at the focal point was estimated to be 150 mW/mm^2.
(§1) Ca++ imaging of mouse 1° MK in response to chemical activation of TRPV4 was conducted after loading with 2 μM fura2-AM, following a ratiometric Ca2+ imaging protocol with 340/380 nm […] for dual excitation. Ratios of emissions were acquired at 0.5 Hz. ΔR/R0 was determined as the fraction of the increase of a given ratio over baseline ratio, divided by baseline ratio. For stimulation of cells with UVB, where fura-2 was not suitable because of the proximity of stimulation with 340/380 nm and 295 nm, 2 μM fluo4-AM was used instead. Ca++ imaging was carried out at 488 nm excitation, acquisition of emissions at 0.5 Hz, expressed as ΔF/F0. In the custom-built UV optical system, UV LEDs were capped with a ball lens, a transparent optical window in the shape of a hemispherical lens (FIG. 2B). The LED output optical beam focused at 15-20 mm from the lens, with a spot diameter of approximately 1.5˜2.0 mm (FIG. 2C). […] The thermal equilibration stage was set for physiological temperature.
To further dissect the underlying mechanisms involved, we built a customized device for specific and narrow-band UVB stimulation of primary mouse epidermal keratinocytes (1° MK) cultured in vitro (FIG. 6A-B and FIG. 2A-D). This allowed use of the Ca++ sensitive dye, fluo-4, and assessment of 1° MK's Ca++ dynamics following UVB exposure (FIG. 6B). The elicited Ca++ signal was obliterated by a UV-refracting glass coverslip, underscoring the strict dependence of the calcium response on UVB (FIG. 6C and FIG. 2A).

ET1 secretion by 1° MK = assay: ET1 secretion by non-stimulated 1° MK (ELISA of supernatant); assay type: cell-based, mouse
Procedure: FIG. 8: Central role for KC TRPV4 in UVB-evoked Ca^++ signaling and nocifensive behavior—ET1-related supplementary findings. (A) Augmentation of GSK101-evoked Ca^++ signaling by ET1. Shown are averaged Ca^++ measurements (fura-2) in response to 5 nM GSK101. […] (B) ET1 secretion by non-stimulated 1° MK depends on TRPV4 and PLC. Shown are relative ET1 concentrations (determined by ELISA, pg/mL; vehicle-treated and WT control normalized to 100) in supernatant of non-stimulated 1° MK. Note the clear dependence on TRPV4, as indicated by a 50% reduction in Trpv4^−/− 1° MK. […] In addition, PLC-inhibitor robustly affects ET1 secretion in WT and Trpv4^−/− 1° MK. (C) ET1 expression by UVB-exposed 1° MK depends on TRPV4 and PLC—immunocytochemistry. Shown is specific ET1 immunolabeling in 1° MK, exposed to UVB using the UVB-LEDs, as for Ca^++ imaging. Use of the UVB-LED device precluded application of a ET1 ELISA, only irradiated cells could be examined. […] (D) ET1 expression by UVB-exposed 1° MK depends on TRPV4 and PLC—quantification of immunocytochemistry.
(§2) We tested whether UVB causes ET1 upregulation in a TRPV4-dependent manner. Given the exquisite wave-length dependence of ET1 expression in 1° MKs, we resorted to the UVB-LED device as for Ca++ imaging (FIG. 6A and FIG. 2A-D). […] Consistent with its effects on UVB-evoked Ca++ transients, PLC-inhibitor U73122 also dampened ET1 expression. […] This leads to TRPV4-dependent Ca++ signaling, which in turn amplifies ET1 signaling in a paracrine/autocrine fashion.

ET1 expression in 1° MK = assay: ET1 expression by UVB-exposed 1° MK (immunocytochemistry); assay type: cell-based, mouse; details: 295 nm UVB-LED, 24 hours
Procedure: 1° MK were exposed to UVB using the UV optical system (295 nm LED). 24 hours later the cells were fixed and fluorescently immunolabeled for ET1. Digital images were captured and subjected to morphometry.
Mouse keratinocytes were cultured on collagen coated quartz coverslips and then stimulated from the bottom using the previously mentioned UV optical system using the 295 nm LED. 24 hours later the cells were fixed in 4% formaldehyde in PBS for 20 minutes, permeabilized with 0.1% Triton X-100 in PBS for 10 minutes, washed, then blocked in 10% normal goat serum in PBS for 45 minutes. Coverslips were incubated overnight with primary antibody mouse anti-ET1 (1:200; Abcam), washed three times in PBS and incubated with secondary antibody for 2 hours at 25° C. Coverslips were washed three times in PBS, once with double-distilled H2O. Digital images were captured using a 40× immersion lens on the BX61 Olympus upright microscope. Morphometric analysis was conducted using ImageJ freeware with tailored regions-of-interest.
as §2

TRPV4 [2] = target: T1, TRPV4 (Mus musculus, UniProt Q9EPK8); assay: GSK101-evoked Ca++ transient in 1° MK (fura-2); assay type: cell-based; details: 5 nM GSK101
T1 construct: Primary mouse keratinocytes were derived from back skin of newborn mice; endogenous in cells; host or cells: primary mouse epidermal keratinocytes (1° MK), wild type
Procedure: as §1, with “temperature. We confirmed the non-thermal nature of UVB stimulation using the customized 295 nm LED device in a dedicated experiment (FIG. 2D), thus confirming the specific modality of stimulation as UVB.” for “temperature.”
We obtained corroborating findings by chemically activating TRPV4 with GSK101, which can directly stimulate TRPV4 in WT 1° MK. […]

TRPV4 [3] = target: T1, TRPV4; assay: 4α-PDD-evoked Ca++ signaling in 1° MK with ET1 co-application; assay type: cell-based; details: fura-2, ET1 co-application
Procedure: FIG. 7: Central role for keratinocyte TRPV4 in UVB-evoked Ca++ signaling and nocifensive behavior—effects of ET1. (A) Effects of ET1 on UVB-evoked Ca++ signaling in 1° MKs. […] Panel (iii) illustrates the complete elimination of the ET1-augmented Ca++ transients when both subtypes of ET(R) are blocked. (B) 4α-PDD-evoked Ca++ signaling in 1° MKs—ET1-related findings. […] Quantifications are for n=3 mice/group. *** denotes statistically significant (p<0.001, t-test). (D) Nocifensive behavior in response to ET1 footpad injection depends on epidermal TRPV4. Bar diagram summarizes behavioral findings for Trpv4−/−vs. WT and for oil-treated vs. tam-treated iKO mice. […] Trpv4−/− and tam-treated iKO mice fail to respond; n≥7 mice/group, ** p<0.01, ANOVA.
Ca++ imaging of mouse 1° MK in response to chemical activation of TRPV4 was conducted after loading with 2 μM fura2-AM, following a ratiometric Ca2+ imaging protocol with 340/380 nm […] for dual excitation. Ratios of emissions were acquired at 0.5 Hz. ΔR/R0 was determined as the fraction of the increase of a given ratio over baseline ratio, divided by baseline ratio. For stimulation of cells with UVB, where fura-2 was not suitable because of the proximity of stimulation with 340/380 nm and 295 nm, 2 μM fluo4-AM was used instead. Ca++ imaging was carried out at 488 nm excitation, acquisition of emissions at 0.5 Hz, expressed as ΔF/F0. […]

T1 sequence (Q9EPK8 whole entry): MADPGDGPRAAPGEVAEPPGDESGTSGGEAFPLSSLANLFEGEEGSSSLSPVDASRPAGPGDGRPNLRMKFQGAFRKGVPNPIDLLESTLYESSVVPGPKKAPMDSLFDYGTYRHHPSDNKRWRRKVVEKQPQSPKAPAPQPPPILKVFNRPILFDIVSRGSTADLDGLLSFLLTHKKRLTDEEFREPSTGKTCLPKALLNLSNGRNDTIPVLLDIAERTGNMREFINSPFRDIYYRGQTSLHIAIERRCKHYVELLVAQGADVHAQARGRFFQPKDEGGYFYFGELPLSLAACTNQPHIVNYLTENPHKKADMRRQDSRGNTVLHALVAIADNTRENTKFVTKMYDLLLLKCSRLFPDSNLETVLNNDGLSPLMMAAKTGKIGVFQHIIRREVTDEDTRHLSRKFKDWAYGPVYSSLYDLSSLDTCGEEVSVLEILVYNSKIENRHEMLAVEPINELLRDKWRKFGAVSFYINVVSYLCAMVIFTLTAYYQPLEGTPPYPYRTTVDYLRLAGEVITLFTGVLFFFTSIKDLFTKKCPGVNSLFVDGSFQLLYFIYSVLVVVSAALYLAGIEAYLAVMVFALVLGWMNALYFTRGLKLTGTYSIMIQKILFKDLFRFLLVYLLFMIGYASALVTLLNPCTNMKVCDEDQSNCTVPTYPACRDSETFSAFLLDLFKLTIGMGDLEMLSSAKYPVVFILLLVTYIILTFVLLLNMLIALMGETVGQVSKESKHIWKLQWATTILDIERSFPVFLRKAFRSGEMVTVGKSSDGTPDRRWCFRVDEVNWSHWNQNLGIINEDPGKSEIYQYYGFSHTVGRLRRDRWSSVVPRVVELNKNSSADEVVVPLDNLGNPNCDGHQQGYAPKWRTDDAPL

Row | Molecule | UVB-evoked Ca++ signaling [1] | ET1 secretion by non-stimulated 1° MK (ET1 secretion by 1° MK) | ET1 immunoreactivity in UVB-exposed 1° MK (ET1 expression in 1° MK) | other results
1 | CC(C)C[C@@H]1NC(=O)[C@@H](C(C)C)NC(=O)[C@@H]2CCCN2C(=O)[C@@H](CC(=O)O)NC(=O)[C@@H](Cc2c[nH]c3ccccc23)NC1=O [BQ123] (cyclo(L[dW][dD]P[dV])) |  |  |  | ET1-augmented UVB-evoked Ca++ signaling [1]: attenuated
2 | CCCC[C@@H](NC(=O)[C@@H](Cc1cn(C(=O)OC)c2ccccc12)NC(=O)[C@H](CC(C)(C)C)NC(=O)N1[C@H](C)CCC[C@@H]1C)C(=O)O [BQ788] |  |  |  | ET1-augmented UVB-evoked Ca++ signaling [1]: attenuated
3 | O=C(O)C(Cc1ccc2c(c1)oc1ccccc12)NCP(=O)(O)O (centres unmarked) [CGS35066] | significantly diminished; also recorded: significant attenuation | down-regulation of ET1 secretion | significant down-regulation | 
4 | COc1ccc2c(c1)CC[C@@H]1[C@@H]2CC[C@]2(C)[C@@H](NCCCCCCN3C(=O)C=CC3=O)CC[C@@H]12 [Compound U73122] | virtually eliminated; also recorded: strongly reduced | down-regulation of ET1 secretion | dampened; also recorded: significant down-regulation | 
5 | C=C(C)CCO[P@@](=O)(O)OP(=O)(O)O [IPP, isopentenyl pyrophosphate] | no effect; also recorded: not inhibited |  |  | 
6 | CC(C)NCCN(C(C)C)S(=O)(=O)c1ccc(Cl)cc1Cl [RN1734] |  | significant down-regulation | diminished; also recorded: significant down-regulation | 
7 | endothelin-1 [ET1] | significant increase; also recorded: augmentation |  |  | GSK101-evoked Ca++ signaling on co-exposure to ET1 (TRPV4 [2]): augmented; also recorded: increase in signal; 4α-PDD-evoked Ca++ response (TRPV4 [3]): significant increase
